According to patent US20010049373A1, “Materials and methods for killing nematodes and nematode eggs” (priority 2000, published 2001):

Tests used:
Caenorhabditis elegans [1] = assay: HTS runs (initial and follow-up): mOD, % Run and visual score (Table 3); type: in vivo; design: key to Initial HTS Run Visual Score / Follow-up HTS Run Visual Score: Dead: only stiff L1s (no movement); Dead (L4): worms are dead, but at a later larval stage; majority of worms are L1 (based on size); majority of worms are L2 (based on size); majority of worms are L3 (based on size); majority of worms are L4 (based on size); AD: majority of worms are adult; #AD: 5 adult worms or less; B!: sterile (0-25 progeny); B: low broodsize (25-100 progeny); ˜B: moderate broodsize (100-250 progeny); <: reduced broodsize (250-500 progeny); OK: no effect (˜1000+ progeny)
Method: (§1) The nematicidal activity of anthelmintic Compositions 48-118 were determined in accordance with the procedure outlined in Example 2.

Caenorhabditis elegans [2] = assay: C. elegans L1 larvae dose-response, 5 day visual viability score (Examples 2 and 7); type: in vivo; design: key: Dead: only stiff L1s (no movement); Dead (L4): worms are dead, but at a later larval stage; majority of worms are L1 (based on size); majority of worms are L2 (based on size); majority of worms are L3 (based on size); majority of worms are L4 (based on size); AD: majority of worms are adult; #AD: 5 adult worms or less; B!: sterile (0-25 progeny); B: low broodsize (25-100 progeny); ˜B: moderate broodsize (100-250 progeny); <: reduced broodsize (250-500 progeny); OK: no effect (˜1000+ progeny); conditions: day 5, Table 3; for 5 Day Visual Score V6: 0.3 μM (procedure of Example 2); for 5 Day Visual Score V5: 0.9 μM (procedure of Example 2); for 5 Day Visual Score V4: 2.6 μM (procedure of Example 2); for 5 Day Visual Score V3: 7.8 μM (procedure of Example 2); for 5 Day Visual Score V1: 70 μM (procedure of Example 2); for 5 Day Visual Score V2: 23.3 μM (procedure of Example 2)
Method: Caenorhabditis elegans adults were grown on Nematode Growth Medium (NGM) until they produced eggs, then the adults were removed.
The eggs were allowed to hatch, and the L1 larvae collected. See The Neniatode Caenorhabditis elegans (1988) Cold Spring Harbor Laboratory Press. Using a Matrix Programmable Pipette, the L1s were distributed into 96-well tissue culture plates, 20 L1 in 50 μl NGM per well. Antibiotic/Antimyotic was added to each well, and 1% by weight E. coli strain HB101. The subject anthelmintic compounds were stored at 5 mM in 100% DMSO. 0.7 μl of compounds 1-31 were added to the left-most column of wells to yield a final concentration of 70 μM in 1.4% DMSO, with 1.4% DMSO only as the control. The compounds were then subjected to 5 more 3-fold dilutions from left to right to yield 6 column concentrations of 70 μM, 23.3 μM, 7.8 μM, 2.6 μM, 0.9 μM, and 0.3 μM. Plates were stored in air-tight Rubbermaid plastic boxes at 20° C. The nematodes had cleared all control wells by day 4, and nematode viability was scored by visual examination under a 100× dissecting microscope on day 5. A visual viability scoring system was used as follows:
If several classes of worms exist in a well, then all classes are scored. If adults are present, then the brood score is also recorded. Thus, “L1/L2” would mean a mixture of L1's and L2's are present in the well. “L4/#AD/B” would mean that a mixture of L4's and adults are resent in the well. The “#AD” would mean that there are 6 or less adults, and the “B” would mean that there were 100 progeny or less.
Column VI has a compound concentration of 70 μM with sequential 3-fold dilutions reported in columns V2, V3, V4, V5, and V6, respectively, such that the V6 concentration was 0.3 μM.
as §1

Row | SMILES | Follow-up HTS Run % Run (Caenorhabditis elegans [1]) [%] | Follow-up HTS Run Visual Score (Caenorhabditis elegans [1]) | Follow-up HTS Run mOD (Caenorhabditis elegans [1]) [mOD] | Initial HTS Run % Run (Caenorhabditis elegans [1]) [%] | Initial HTS Run Visual Score (Caenorhabditis elegans [1]) | Initial HTS Run mOD (Caenorhabditis elegans [1]) [mOD] | 5 Day Visual Score V6 (Caenorhabditis elegans [2]) | 5 Day Visual Score V5 (Caenorhabditis elegans [2]) | 5 Day Visual Score V4 (Caenorhabditis elegans [2]) | 5 Day Visual Score V3 (Caenorhabditis elegans [2]) | 5 Day Visual Score V1 (Caenorhabditis elegans [2]) | 5 Day Visual Score V2 (Caenorhabditis elegans [2])
1 | Fc1ccc(Oc2cc(NCc3cc(F)cc(F)c3)ncn2)cc1 [AKC 369] | 94 | B (low broodsize (25-100 progeny)) | 127 | 115 | 1AD/B | 225 | OK (no effect (˜1000+ progeny)) | OK (no effect (˜1000+ progeny)) | OK (no effect (˜1000+ progeny)) | < (reduced broodsize (250-500 progeny)) | Dead | –
2 | Fc1ccccc1Oc1cc(NCc2cccc(C(F)(F)F)c2)ncn1 [AKC 381] | 109 | L4/AD/B! | 147 | 138 | Dead/1AD/B! | 270 | OK (no effect (˜1000+ progeny)) | OK (no effect (˜1000+ progeny)) | OK (no effect (˜1000+ progeny)) | < (reduced broodsize (250-500 progeny)) | L1 | ˜B (moderate broodsize (100-250 progeny))
3 | FC(F)(F)c1cccc(CNc2cc(Oc3cccc(Cl)c3)ncn2)c1 [AKC 379] | 107 | L4/AD/B! | 144 | 142 | Dead/1AD | 277 | OK (no effect (˜1000+ progeny)) | OK (no effect (˜1000+ progeny)) | OK (no effect (˜1000+ progeny)) | OK (no effect (˜1000+ progeny)) | Dead | –
4 | Fc1ccc(Oc2cc(NCc3ccc(C(F)(F)F)cc3)ncn2)cc1 [AKC 358] | 113 | L3-Dead L3 | 153 | 129 | Dead | 252 | OK (no effect (˜1000+ progeny)) | OK (no effect (˜1000+ progeny)) | OK (no effect (˜1000+ progeny)) | – | Dead | Dead
5 | CCCCCCCCCCCCNc1cc(Oc2ccccc2Cl)ncn1 [AKC 404] | 124 | Dead | 168 | 155 | Dead | 302 | OK (no effect (˜1000+ progeny)) | OK (no effect (˜1000+ progeny)) | OK (no effect (˜1000+ progeny)) | OK (no effect (˜1000+ progeny)) | Dead | Dead
6 | FC(F)(F)c1cccc(CNc2cc(Oc3ccc(-c4ccccc4)cc3)ncn2)c1 [AKC 382] | 118 | – | 159 | 141 | Dead | 275 | OK (no effect (˜1000+ progeny)) | OK (no effect (˜1000+ progeny)) | OK (no effect (˜1000+ progeny)) | OK (no effect (˜1000+ progeny)) | Dead | –
7 | NS(=O)(=O)c1cccc(NC(=O)CCN2CCC(c3cccc4[nH]ccc34)CC2)c1 [AKC 377] | 109 | L4/AD/B!-No P | 147 | 113 | 3AD/B | 220 | OK (no effect (˜1000+ progeny)) | OK (no effect (˜1000+ progeny)) | OK (no effect (˜1000+ progeny)) | OK (no effect (˜1000+ progeny)) | L1 | –
8 | Clc1cccc(CNc2cc(Oc3cccc(Cl)c3)ncn2)c1 [AKC 364] | 108 | L4/AD/B! | 146 | 121 | 4AD/˜B | 236 | OK (no effect (˜1000+ progeny)) | OK (no effect (˜1000+ progeny)) | < (reduced broodsize (250-500 progeny)) | ˜B (moderate broodsize (100-250 progeny)) | Dead(L2/L3) | –
9 | Clc1cccc(Oc2cc(NCc3ccccc3Cl)ncn2)c1 [AKC 376] | 115 | L2/L3/1AD | 155 | 131 | 2AD/B | 256 | OK (no effect (˜1000+ progeny)) | OK (no effect (˜1000+ progeny)) | OK (no effect (˜1000+ progeny)) | OK (no effect (˜1000+ progeny)) | L1 | OK (no effect (˜1000+ progeny))
10 | COc1ccc(Oc2cc(NCc3ccc(C(F)(F)F)cc3)ncn2)cc1 [AKC 357] | 98 | L4/AD/B! | 132 | 115 | 3AD/B | 224 | OK (no effect (˜1000+ progeny)) | OK (no effect (˜1000+ progeny)) | OK (no effect (˜1000+ progeny)) | – | Dead | –
